According to the supplement of paper PMC10627819:
In brackets after ≈: the same amount, converted by molar mass.

Legend:
S. aureus DSM 20231 [1] = assay: Bliss interaction score (quartile over a dose matrix) (fitness difference); higher = more antagonism (negative = synergy)
Outline: (§1)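 Quartiles of the Bliss score were taken over technical, biological and donor/recipient replicates. That score is observed fitness minus the product of the single-drug fitness values, which were inferred from combination data. Fitness itself is OD595 at entry into stationary phase divided by the plate's robust no-drug mean, with a cap at 1.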

S. pneumoniae D39V [2] = assay: as above
Outline: as §1

B. subtilis 168 = assay: as above
Outline: as §1

S. aureus Newman [3] = assay: as above
Outline: as §1

S. aureus DSM 20231 [4] = assay: fitness (endpoint OD595 vs no drug) (fraction); higher = more growth
Outline: (§2)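 Each well of a 384-well plate received 30 µl of culture at OD595 0.01, or 55 µl for S. pneumoniae. TSB, LB Lennox or CY served as media at 37 °C. OD595 was taken every 30 min for 14 h and corrected by subtracting the first reading. Fitness is the optical density at stationary-phase entry divided by the robust mean of no-drug controls, capped at 1.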

S. pneumoniae D39V [5] = assay: as above
Outline: as §2

S. aureus Newman [6] = assay: as above
Outline: as §2

S. aureus DSM 20231 [7] = tested on: S. aureus DSM 20231
S. aureus Newman [8] = tested on: S. aureus Newman
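For Bliss interaction score (quartile over a dose matrix) in this document: first quartile when negative (synergy) and third quartile when positive (antagonism).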

CN[C@@H]1[C@H](O)[C@H](NC)[C@H]2O[C@@]3(O)C(=O)C[C@@H](C)O[C@H]3O[C@@H]2[C@H]1O [Spectinomycin] + CN[C@H](CC(C)C)C(=O)N[C@H]1C(=O)N[C@@H](CC(N)=O)C(=O)N[C@H]2C(=O)N[C@H]3C(=O)N[C@H](C(=O)N[C@H](C(=O)O)c4cc(O)cc(O)c4-c4cc3ccc4O)[C@H](O)c3ccc(c(Cl)c3)Oc3cc2cc(c3O[C@@H]2O[C@H](CO)[C@@H](O)[C@H](O)[C@H]2O[C@H]2C[C@](C)(N)[C@H](O)[C@H](C)O2)Oc2ccc(cc2Cl)[C@H]1O [Vancomycin]
Details | Bliss interaction score
B. subtilis 168 | 0.0821
S. aureus DSM 20231 [1] | -0.059
S. aureus Newman [3] | 0.0699
S. pneumoniae D39V [2] | -0.0797

fitness
Details | first compound 4 µg/mL | first compound 8 µg/mL | first compound 16 µg/mL
S. aureus DSM 20231 [4], partner 0.1875 µg/mL | 0.906 | 0.938 | 0.85
S. aureus DSM 20231 [4], partner 0.375 µg/mL | 0.898 | 0.893 | 0.774
S. aureus DSM 20231 [4], partner 0.75 µg/mL | ≥ 1 | 0.985 | 0.908
S. aureus Newman [6], partner 0.1875 µg/mL | 0.945 | 0.971 | 0.906
S. aureus Newman [6], partner 0.375 µg/mL | 0.916 | 0.979 | 0.921
S. aureus Newman [6], partner 0.75 µg/mL | 0.928 | 0.946 | 0.892
S. pneumoniae D39V [5], partner 0.03125 µg/mL | 0.979 | 0.933 | 0.835
S. pneumoniae D39V [5], partner 0.0625 µg/mL | 0.902 | 0.918 | 0.804
S. pneumoniae D39V [5], partner 0.125 µg/mL | – | 0.878 | –

fitness, one replicate
Details | partner 0.1875 µg/mL | partner 0.25 µg/mL | partner 0.375 µg/mL | partner 0.5 µg/mL | partner 0.75 µg/mL
S. aureus DSM 20231 [4], first compound 32 µg/mL | 0.741 | – | 0.74 | – | 0.737
S. aureus DSM 20231 [4], first compound 64 µg/mL | 0.0522 | – | 0.0729 | – | 0.0868
S. aureus Newman [6], first compound 32 µg/mL | 0.636 | – | 0.623 | – | 0.613
S. aureus Newman [6], first compound 64 µg/mL | 0.119 | – | 0.071 | – | 0.0594
S. pneumoniae D39V [5], first compound 4 µg/mL | – | 0.437 | – | 0.0734 | –
S. pneumoniae D39V [5], first compound 8 µg/mL | – | 0.293 | – | 0.0189 | –

CN[C@H](CC(C)C)C(=O)N[C@H]1C(=O)N[C@@H](CC(N)=O)C(=O)N[C@H]2C(=O)N[C@H]3C(=O)N[C@H](C(=O)N[C@H](C(=O)O)c4cc(O)cc(O)c4-c4cc3ccc4O)[C@H](O[C@H]3C[C@](C)(N)[C@@H](O)[C@H](C)O3)c3ccc(c(Cl)c3)Oc3cc2cc(c3O[C@@H]2O[C@H](CO)[C@@H](O)[C@H](O)[C@H]2O[C@H]2C[C@](C)(NCc3ccc(-c4ccc(Cl)cc4)cc3)[C@@H](O)[C@H](C)O2)Oc2ccc(cc2Cl)[C@H]1O [Oritavancin]
Details | MIC [µg/mL]
S. aureus DSM 20231 [7] | 4.5 (≈ 2.51 µM)
S. aureus Newman [8] | 4.5 (≈ 2.51 µM)
